Laboratory results reported in the supplement of paper PMC10307832.

Assays:
Assay in all cases: relative viability (nuclei count vs DMSO), 5 days (fraction); higher = more cells survive
NCI-H2405 = tested on: NCI-H2405
In short: (§1)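 Dosing by pin tool came one day after lung cancer cell lines were seeded in 1536-well plates, using either one drug or a fixed anchor-drug dose plus five library-drug doses (not always all listed) in √10 steps. After 5 days, nuclei were counted on 4× images. Relative viability is treated-well nuclei count divided by vehicle-well nuclei count, and values are medians of duplicate plates.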

NCI-H1355 = tested on: NCI-H1355
In short: as §1

NCI-H441 = tested on: NCI-H441
In short: as §1

NCI-H23 = tested on: NCI-H23
In short: as §1

SK-MES-1 = tested on: SK-MES-1
In short: as §1

NCI-H2023 = tested on: NCI-H2023
In short: as §1

NCI-H727 = tested on: NCI-H727
In short: as §1

NCI-H2009 = tested on: NCI-H2009
In short: as §1

UMC-11 = tested on: UMC-11
In short: as §1

NCI-H322M = tested on: NCI-H322M
In short: as §1

LCLC-97TM1 = tested on: LCLC-97TM1
In short: as §1

NCI-H1755 = tested on: NCI-H1755
In short: as §1

NCI-H2085 = tested on: NCI-H2085
In short: as §1

ChaGo-K-1 = tested on: ChaGo-K-1
In short: as §1

LOU-NH91 = tested on: LOU-NH91
In short: as §1

NCI-H2170 = tested on: NCI-H2170
In short: as §1

NCI-H650 = tested on: NCI-H650
In short: as §1

RERF-LC-KJ = tested on: RERF-LC-KJ
In short: as §1

NCI-H1437 = tested on: NCI-H1437
In short: as §1

HCC-78 = tested on: HCC-78
In short: as §1

ABC-1 = tested on: ABC-1
In short: as §1

HOP-62 = tested on: HOP-62
In short: as §1

O=C(O)CCCCC(CCSCc1ccccc1)SCc1ccccc1 (centres undefined) [CPI-613] + O=C(CCCCCCC(=O)Nc1ccccc1)NO [Vorinostat] (partner 1 µM)
relative viability (NCI-H2405; first compound 5 µM): 1.09
relative viability (NCI-H2405; first compound 15.81 µM): 0.79
relative viability (NCI-H2405; first compound 50 µM): 0.787
relative viability (NCI-H2405; first compound 158.11 µM): 0.569
relative viability (NCI-H2405; first compound 500 µM): 0.468
relative viability (NCI-H1355; first compound 5 µM): 0.568
relative viability (NCI-H1355; first compound 15.81 µM): 0.547
relative viability (NCI-H1355; first compound 50 µM): 0.537
relative viability (NCI-H1355; first compound 158.11 µM): 0.452
relative viability (NCI-H1355; first compound 500 µM): 0.0985
relative viability (NCI-H441; first compound 5 µM): 0.656
relative viability (NCI-H441; first compound 15.81 µM): 0.789
relative viability (NCI-H441; first compound 50 µM): 0.717
relative viability (NCI-H441; first compound 158.11 µM): 0.437
relative viability (NCI-H441; first compound 500 µM): 0.0026
relative viability (NCI-H23; first compound 5 µM): 0.612
relative viability (NCI-H23; first compound 15.81 µM): 0.586
relative viability (NCI-H23; first compound 50 µM): 0.591
relative viability (NCI-H23; first compound 158.11 µM): 0.168
relative viability (NCI-H23; first compound 500 µM): 0.0015
relative viability (SK-MES-1; first compound 5 µM): 1.09
relative viability (SK-MES-1; first compound 15.81 µM): 0.921
relative viability (SK-MES-1; first compound 50 µM): 1.01
relative viability (SK-MES-1; first compound 158.11 µM): 0.169
relative viability (SK-MES-1; first compound 500 µM): 0.0799
relative viability (NCI-H2023; first compound 5 µM): 0.537
relative viability (NCI-H2023; first compound 15.81 µM): 0.475
relative viability (NCI-H2023; first compound 50 µM): 0.572
relative viability (NCI-H2023; first compound 158.11 µM): 0.0274
relative viability (NCI-H2023; first compound 500 µM): 0.007
relative viability (NCI-H727; first compound 5 µM): 1.1
relative viability (NCI-H727; first compound 15.81 µM): 1.07
relative viability (NCI-H727; first compound 50 µM): 1.04
relative viability (NCI-H727; first compound 158.11 µM): 1.01
relative viability (NCI-H727; first compound 500 µM): 0.642
relative viability (NCI-H2009; first compound 5 µM): 0.726
relative viability (NCI-H2009; first compound 15.81 µM): 0.672
relative viability (NCI-H2009; first compound 50 µM): 0.657
relative viability (NCI-H2009; first compound 158.11 µM): 0.152
relative viability (NCI-H2009; first compound 500 µM): 0.0308
relative viability (UMC-11; first compound 5 µM): 0.355
relative viability (UMC-11; first compound 15.81 µM): 0.358
relative viability (UMC-11; first compound 50 µM): 0.39
relative viability (UMC-11; first compound 158.11 µM): 0.126
relative viability (UMC-11; first compound 500 µM): 0.1
relative viability (NCI-H322M; first compound 5 µM): 0.809
relative viability (NCI-H322M; first compound 15.81 µM): 0.722
relative viability (NCI-H322M; first compound 50 µM): 0.777
relative viability (NCI-H322M; first compound 158.11 µM): 0.703
relative viability (NCI-H322M; first compound 500 µM): 0.161
relative viability (LCLC-97TM1; first compound 5 µM): 0.479
relative viability (LCLC-97TM1; first compound 15.81 µM): 0.492
relative viability (LCLC-97TM1; first compound 50 µM): 0.769
relative viability (LCLC-97TM1; first compound 158.11 µM): 0.331
relative viability (LCLC-97TM1; first compound 500 µM): 0.0868
relative viability (NCI-H1755; first compound 5 µM): 0.736
relative viability (NCI-H1755; first compound 15.81 µM): 0.707
relative viability (NCI-H1755; first compound 50 µM): 0.675
relative viability (NCI-H1755; first compound 158.11 µM): 0.577
relative viability (NCI-H1755; first compound 500 µM): 0.608
relative viability (NCI-H2085; first compound 5 µM): 0.791
relative viability (NCI-H2085; first compound 15.81 µM): 0.709
relative viability (NCI-H2085; first compound 50 µM): 0.657
relative viability (NCI-H2085; first compound 158.11 µM): 0.457
relative viability (NCI-H2085; first compound 500 µM): 0.216
relative viability (ChaGo-K-1; first compound 5 µM): 0.737
relative viability (ChaGo-K-1; first compound 15.81 µM): 0.685
relative viability (ChaGo-K-1; first compound 50 µM): 0.744
relative viability (ChaGo-K-1; first compound 158.11 µM): 0.518
relative viability (ChaGo-K-1; first compound 500 µM): 0.301
relative viability (LOU-NH91; first compound 5 µM): 0.891
relative viability (LOU-NH91; first compound 15.81 µM): 0.844
relative viability (LOU-NH91; first compound 50 µM): 0.871
relative viability (LOU-NH91; first compound 158.11 µM): 0.837
relative viability (LOU-NH91; first compound 500 µM): 0.622
relative viability (NCI-H2170; first compound 5 µM): 0.723
relative viability (NCI-H2170; first compound 15.81 µM): 0.783
relative viability (NCI-H2170; first compound 50 µM): 0.774
relative viability (NCI-H2170; first compound 158.11 µM): 0.541
relative viability (NCI-H2170; first compound 500 µM): 0.31
relative viability (NCI-H650; first compound 5 µM): 0.447
relative viability (NCI-H650; first compound 15.81 µM): 0.365
relative viability (NCI-H650; first compound 50 µM): 0.301
relative viability (NCI-H650; first compound 158.11 µM): 0.297
relative viability (NCI-H650; first compound 500 µM): 0.414
relative viability (RERF-LC-KJ; first compound 5 µM): 0.607
relative viability (RERF-LC-KJ; first compound 15.81 µM): 0.53
relative viability (RERF-LC-KJ; first compound 50 µM): 0.631
relative viability (RERF-LC-KJ; first compound 158.11 µM): 0.415
relative viability (RERF-LC-KJ; first compound 500 µM): 0.344
relative viability (NCI-H1437; first compound 5 µM): 0.803
relative viability (NCI-H1437; first compound 15.81 µM): 0.637
relative viability (NCI-H1437; first compound 50 µM): 0.689
relative viability (NCI-H1437; first compound 158.11 µM): 0.093
relative viability (NCI-H1437; first compound 500 µM): 0.0541
relative viability (HCC-78; first compound 15.81 µM): 0.373
relative viability (HCC-78; first compound 50 µM): 0.361
relative viability (HCC-78; first compound 158.11 µM): 0.393
relative viability (HCC-78; first compound 500 µM): 0.479
relative viability (ABC-1; first compound 5 µM): 1.21
relative viability (ABC-1; first compound 15.81 µM): 0.811
relative viability (ABC-1; first compound 50 µM): 0.995
relative viability (ABC-1; first compound 158.11 µM): 0.701
relative viability (ABC-1; first compound 500 µM): 0.318
relative viability (HOP-62; first compound 5 µM): 0.531
relative viability (HOP-62; first compound 15.81 µM): 0.49
relative viability (HOP-62; first compound 50 µM): 0.574
relative viability (HOP-62; first compound 158.11 µM): 0.285
relative viability (HOP-62; first compound 500 µM): 0.0726
